For 1 molecule, IC50 results are on record in ChEMBL document CHEMBL1151616, “Na+-K+-ATPase inhibitors from Lysimachia japonica” (J Nat Prod, 1984).

This test is described as follows: Inhibition of Na+K+ATpase from pig cortex. Set-up: species or system Sus scrofa.

Usually IC50 stands for the concentration that inhibits the measured activity by half. Read a high IC50 as lower potency. `C[C@@H]1O[C@@H](O[C@H]2C[C@@H](O)[C@]3(CO)[C@H]4[C@H](O)C[C@]5(C)[C@@H](C6=CC(=O)OC6)CC[C@]5(O)[C@@H]4CC[C@]3(O)C2)[C@H](O)[C@H](O)[C@H]1O` [OUABAIN] showed an IC50 of 0.6 µM.
